Data from patent US6669945B1, “Universal T-cell epitopes for anti-malarial vaccines” (New York University, priority 1997, dated 2003).
pIC50: −log10 of the molar value. Where two headings read alike, the source gives them in different places. Where no end group is shown, it is not given here. The star is where a group is joined. Biotin = O=C1N[C@H]2[C@H](CS[C@H]2CCCCC(=O)*)N1

Experiments:
[1] = tested on: EBV-B cell line 9065 (DRB1*1301/DQB1*0603); experiment: Flow cytometry binding of biotinylated peptides to EBV-B cells; set-up: species or system human; details: biotinylated peptide, EBV-B 9065 cells
Protocol: For flow cytometry, EBV-B cells or L cells (2×10^5 cells), were incubated with an equal volume (100 μl) of biotinylated peptide (200 μg/ml) in each well of a U-bottomed 96-well plate. Following a 4-hour incubation on ice with gentle agitation, the unbound peptides were removed by washing. To increase the sensitivity of the fluorescent signal, two layers of FITC-Avidin were used to label the cells by incubating first with FITC-Avidin D, followed by biotinylated anti-Avidin D and again FITC-Avidin DCS (Vetor, Burlingame Calif.). Propidium Iodide (2.8 μg/ml) was added prior to FACS analysis to allow gating on viable cells.

DR 2 (DRB5*0101) = target: T1, DR 2 (DRB5*0101) (Homo sapiens, UniProt P01903+Q30154); experiment: biochemical; assay type: binding; details: DR 2 DRB5*0101, biotinyl-peptide MBP; read-out: Competitor Peptide IC50
T1 construct: expressed in transfected cells; host or cells: L cell transfectant L416.3

DR 7 (DRB1*0701) = DR 7 (DRB1*0701) (Homo sapiens, UniProt P01903+P01911, A100R/A102G/A103Q/D57E/D86V/E43K/F76Y/K127E/L162R/M171V/P40G/Q125H/Q99D/R33Q/R42Y/R54Q/S133A/S66F/T210M/V115G/Y107V/Y59L/Y89S); experiment: biochemical; assay type: binding; details: DR 7 DRB1*0701, biotinyl-peptide GFK(A)7, pH 5; read-out: Competitor Peptide IC50
DR 13 (DRB1*1301) = DR 13 (DRB1*1301) (Homo sapiens, UniProt P01903+P01911, A100E/A169T/K41T/L162R/M171V/P40S/Q125H/Q178H/Q39Y/Q99D/R42S/S66N/T262R/W38E/Y61H); experiment: biochemical; details: soluble DR 13, indicator GFK(A)7 (FIG. 2B); read-out: IC50, inhibition of binding of biotinylated GFK(A)7
DR 4 (DRB1*0401) = target: T2, DR 4 (DRB1*0401) (Homo sapiens, UniProt P01903+P01911, A100K/A169T/F76Y/I96L/K127E/L162R/M171V/N62H/P40V/Q125Y/R42H/S133A/S149N/S66Y/V115G/V209L/W38E); experiment: biochemical; assay type: binding
T2 construct: The class II molecules in the cell extracts were purified by immunoaffnity; endogenous in cells

DR 1 (DRB1*0101) = target: T3, DR 1 (DRB1*0101) (Homo sapiens, UniProt P01903+P01911, A100R/D57E/F55L/F60I/F76Y/I96L/L162R/M171V/P40L/Q125E/R42F/V115G/Y59C); experiment: biochemical; assay type: binding; details: DR 1 DRB1*0101, biotinyl-peptide GFK(A)7; read-out: Competitor Peptide IC50
T3 construct: The class II molecules in the cell extracts were purified by immunoaffnity; endogenous in cells

DR 11 (5) (DRB1*1101) = DR 11 (5) (DRB1*1101) (Homo sapiens, UniProt P01903+P01911, A100R/A169T/A87E/I96F/K41T/L162R/M171V/P40S/Q125H/Q178H/Q39Y/Q99D/R42S/S66Y/T262R/V115G/W38E); experiment: biochemical; assay type: binding; details: DR 11 (5) DRB1*1101, biotinyl-peptide TT831-843; read-out: Competitor Peptide IC50
DR 8 (DRB1*0801) = DR 8 (DRB1*0801) (Homo sapiens, UniProt P01903+P01911, A100R/A103L/A169T/D86S/F76Y/H45Y/I96F/K41T/L162R/M171V/P40S/Q125H/Q178H/Q39Y/Q99D/R218S/R42G/S66Y/V115G/W38E); experiment: biochemical; assay type: binding; details: DR 8 DRB1*0801, biotinyl-peptide GYR(A)6L; read-out: Competitor Peptide IC50
DR 3 (DRB1*0301) = target: T4, DR 3 (DRB1*0301) (Homo sapiens, UniProt P01903+P01911, A100K/A102G/A103R/A169T/F55Y/I96L/K41T/L162R/M171V/P40S/Q125H/Q178H/Q39Y/R42S/S66N/T106N/T262R/W38E/Y61H); experiment: biochemical; assay type: binding; details: DR 3 DRB1*0301, biotinyl-peptide IAYD(A)5; read-out: Competitor Peptide IC50
T4 construct: The class II molecules in the cell extracts were purified by immunoaffnity; endogenous in cells

[2] = target: DQ 7 (DQA1*0501/DQB1*0301) (Homo sapiens, UniProt P01909+P01920); experiment: Peptide competition assay, soluble DQ molecules; assay type: binding; details: soluble DQ 7 (FIG. 3B)
[3] = target: T5, DQ 9 (DQA1*0201/DQB1*0303) (Homo sapiens, UniProt P01909+P01920, A45G/C70K/E183D/E77G/F237L/F77L/G63E/H199R/I129T/K197E/L178F/L74F/Q57E/Q76R/R75H/S185I/S97I/T217I/V73L/Y48F/Y58L); experiment: Peptide competition assay, soluble DQ molecules; assay type: binding; details: soluble DQ 9 (FIG. 3A)
T5 construct: made in house; host or cells: insect cells, baculovirus expression system

“Biotinyl-T1: NH2 terminal biotinylated T1 peptide (Biotin-DPNANPNVDPNANPNV)” was tested, and the MFC [1] was “could not be detected”.
With CC(C)[C@H](NC(=O)[C@H](CC(N)=O)NC(=O)[C@@H]1CCCN1C(=O)[C@H](CC(N)=O)NC(=O)[C@H](C)NC(=O)[C@H](CC(N)=O)NC(=O)[C@@H]1CCCN1C(=O)[C@H](CC(=O)O)NC(=O)[C@@H](NC(=O)[C@H](CC(N)=O)NC(=O)[C@@H]1CCCN1C(=O)[C@H](CC(N)=O)NC(=O)[C@H](C)NC(=O)[C@H](CC(N)=O)NC(=O)[C@@H]1CCCN1C(=O)[C@@H](N)CC(=O)O)C(C)C)C(=O)O [T1] the pIC50 (DR 2 (DRB5*0101)) was less than 4.00, the pIC50 (DR 7 (DRB1*0701)) was less than 4.00 and the pIC50 (DR 13 (DRB1*1301)) was less than 4.00. The pIC50 (DR 4 (DRB1*0401); DR 4 DRB1*0401, biotinyl-peptide UD4, read-out: Competitor Peptide IC50) was less than 4.00, the pIC50 (DR 4 (DRB1*0401); soluble DR 4, indicator GFK(A)7 (FIG. 2A), read-out: IC50, inhibition of binding of biotinylated GFK(A)7) was less than 4.00 and the pIC50 (DR 1 (DRB1*0101)) was less than 4.00. The pIC50 (DR 11 (5) (DRB1*1101)) was less than 4.00, the pIC50 (DR 8 (DRB1*0801)) was less than 4.00 and the pIC50 (DR 3 (DRB1*0301)) was less than 4.00.
Work on CSCC[C@H](NC(=O)[C@H](CCCNC(=N)N)NC(=O)[C@H](CCSC)NC(=O)[C@H](CCCCN)NC(=O)[C@H](CO)NC(=O)[C@@H](NC(=O)[C@@H]1CCCN1C(=O)[C@H](CCCCN)NC(=O)[C@@H]1CCCN1C(=O)[C@@H]1CCCN1C(=O)[C@@H](N)CCCCN)C(C)C)C(=O)N[C@@H](C)C(=O)N[C@H](C(=O)N1CCC[C@H]1C(=O)N[C@@H](CC(C)C)C(=O)N[C@@H](CC(C)C)C(=O)N[C@@H](CCSC)C(=O)N[C@@H](CCC(N)=O)C(=O)N[C@@H](C)C(=O)O)[C@@H](C)O [CLIP83-101] yielded a pIC50 [2] of 6.30 and a pIC50 [3] of 6.30.
